pIC50: −log10 of the molar value. ≈ marks a conversion by molar mass, not a printed value. Read-outs that look alike come from different tables or passages of the source.
What was measured:
[1] = tested on: Staphylococcus aureus ATCC 29213; experiment: Antibacterial activity, dilution susceptibility test (CLSI M07-A10); format: cell-based; conditions: ATCC29213
[2] = tested on: Staphylococcus aureus ATCC BAA-1556 (MERSA resistant); experiment: as above; format: cell-based; conditions: ATCCBAA1556
[3] = tested on: Staphylococcus epidermidis; experiment: as above; format: cell-based
[4] = tested on: Bacillus subtilis MTCC 441; experiment: as above; format: cell-based; conditions: MTCC441
[5] = tested on: Enterococcus faecium ATCC 35667; experiment: as above; format: cell-based; conditions: ATCC35667
[6] = tested on: Enterococcus faecium ATCC 51559 (VRE resistant); experiment: as above; format: cell-based
[7] = tested on: Klebsiella pneumonia MTCC 618; experiment: as above; format: cell-based; conditions: Klebsiella pneumoniae, MTCC618
[8] = tested on: Escherichia coli MTCC 443; experiment: as above; format: cell-based; conditions: MTCC443
[9] = tested on: Pseudomonas aeruginosa MTCC 741; experiment: as above; format: cell-based; conditions: MTCC741
[10] = tested on: Mycobacterium tuberculosis H37Rv strain; experiment: Anti-tubercular properties, alamar blue microplate MIC; format: cell-based; conditions: 168 h, M. tuberculosis H37Rv, seven days at 37° C., read-out: anti-mycobacterial activity (MIC)
DNA gyrase from E. coli = target: T1, DNA gyrase from E. coli (Escherichia coli, UniProt P0AES4+P0AES6); experiment: Inhibitory activity on E. coli DNA gyrase (Inspiralis assay); format: biochemical
T1 construct: purchased Inspiralis
T1 sequence (P0AES4 whole entry, one chain of several): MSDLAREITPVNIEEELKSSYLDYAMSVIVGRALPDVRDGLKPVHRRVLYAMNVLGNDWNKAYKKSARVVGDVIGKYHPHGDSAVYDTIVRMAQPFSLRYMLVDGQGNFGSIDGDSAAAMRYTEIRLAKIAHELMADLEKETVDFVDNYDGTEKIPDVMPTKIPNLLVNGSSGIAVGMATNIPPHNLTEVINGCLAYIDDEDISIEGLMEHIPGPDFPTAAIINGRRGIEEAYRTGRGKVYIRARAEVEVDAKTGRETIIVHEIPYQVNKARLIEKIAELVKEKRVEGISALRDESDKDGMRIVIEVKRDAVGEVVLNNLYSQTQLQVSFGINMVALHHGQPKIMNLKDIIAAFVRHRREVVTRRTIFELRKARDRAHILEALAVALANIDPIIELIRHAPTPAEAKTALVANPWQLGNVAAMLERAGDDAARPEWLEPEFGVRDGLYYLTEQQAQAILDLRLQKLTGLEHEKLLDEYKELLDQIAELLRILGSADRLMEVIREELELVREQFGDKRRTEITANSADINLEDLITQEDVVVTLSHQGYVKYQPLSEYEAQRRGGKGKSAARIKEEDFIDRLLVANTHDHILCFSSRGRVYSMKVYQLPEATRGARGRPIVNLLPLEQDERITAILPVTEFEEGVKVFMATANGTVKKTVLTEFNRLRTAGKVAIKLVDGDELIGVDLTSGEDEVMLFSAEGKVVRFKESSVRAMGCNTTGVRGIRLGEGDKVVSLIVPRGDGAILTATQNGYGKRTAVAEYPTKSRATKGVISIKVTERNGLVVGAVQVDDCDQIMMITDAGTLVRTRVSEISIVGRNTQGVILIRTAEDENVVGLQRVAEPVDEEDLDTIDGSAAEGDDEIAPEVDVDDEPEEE
Description: Inhibitory potencies were investigated utilizing the Inspiralis assay on streptavidin-coated 96-well microtiter plates. First, the plates were rehydrated with buffer (20 mM Tris-HCl with pH 7.6, 0.01% w/v BSA, 0.05% v/v Tween 20, 137 mM NaCl) and the biotinylated oligonucleotide was then immobilized. After washing off the unbound oligonucleotide, the enzyme test was performed. […] Reaction solutions were incubated at 37° C. for 30 min. After that, the TF buffer (50 mM NaOAc with pH 5.0, 50 mM NaCl and 50 mM MgCl2) was added to terminate the enzymatic reaction. After additional incubation for 30 min at rt, during which biotinoligonucleotide-plasmid triplex was formed, the unbound plasmid was washed off using TF buffer and SybrGOLD in T10 buffer (10 mM Tris HCl with pH 8.0 and 1 mM EDTA) was added. The fluorescence was measured with a microplate reader (BioTek Synergy H4, excitation: 485 nm, emission: 535 nm). Initial screening was done at 100 or 10 μM concentration of inhibitors. […] GraphPad Prism software was used to calculate the IC50 values. The result is given as the average value of three independent measurements.

SMILES: CNc1cc(F)cc2c(/C=C/C(=O)c3ccc(C(=O)O)cc3)c[nH]c12 [Compound 1, (E)-4-(3-(5-fluoro-7-(methylamino)-1H-indol-3-yl)acryloyl)benzoic acid]
- MIC [1]: 0.75 µg/mL (≈ 2.22 µM)
- MIC [2]: 0.75 µg/mL (≈ 2.22 µM)
- MIC ([3]; read-out: MIC): 1 µg/mL (≈ 2.96 µM)
- MIC ([4]; Bacillus subtilis MTCC 441, read-out: MIC): 0.25 µg/mL (≈ 0.739 µM)
- MIC ([5]; Enterococcus faecium ATCC 35667, read-out: MIC): 1 µg/mL (≈ 2.96 µM)
- MIC ([6]; Enterococcus faecium ATCC 51559 (VRE resistant), read-out: MIC): 0.5 µg/mL (≈ 1.48 µM)
- MIC ([7]; Klebsiella pneumonia MTCC 618, read-out: MIC): 0.75 µg/mL (≈ 2.22 µM)
- MIC ([8]; Escherichia coli MTCC 443, read-out: MIC): 0.75 µg/mL (≈ 2.22 µM)
- MIC ([9]; Pseudomonas aeruginosa MTCC 741, read-out: MIC): 0.5 µg/mL (≈ 1.48 µM)
- MIC [10]: 2 µg/mL (≈ 5.91 µM)
- pIC50 (DNA gyrase from E. coli): 6.82

SMILES: CN[C@H](CC(C)C)C(=O)N[C@H]1C(=O)N[C@@H](CC(N)=O)C(=O)N[C@H]2C(=O)N[C@H]3C(=O)N[C@H](C(=O)N[C@H](C(=O)O)c4cc(O)cc(O)c4-c4cc3ccc4O)[C@H](O)c3ccc(c(Cl)c3)Oc3cc2cc(c3O[C@@H]2O[C@H](CO)[C@@H](O)[C@H](O)[C@H]2O[C@H]2C[C@](C)(N)[C@H](O)[C@H](C)O2)Oc2ccc(cc2Cl)[C@H]1O [Vancomycin, reference compound]
- MIC [3]: 1 µg/mL (≈ 0.69 µM)
- MIC ([4]; Bacillus subtilis): 0.5 µg/mL (≈ 0.345 µM)
- MIC ([5]; Enterococcus faecium): 0.5 µg/mL (≈ 0.345 µM)
- MIC ([6]; Enterococcus faecium): > 128 µg/mL
- MIC [7]: > 128 µg/mL
- MIC ([8]; Escherichia coli): > 128 µg/mL
- MIC ([9]; Pseudomonas aeruginosa): > 128 µg/mL
